Data taken from patent US7732449B2, “Inhibitors of cathepsin S” (IRM LLC, priority 2003, dated 2010).
Read-outs that look alike come from different tables or passages of the source.

Tests used:
Assay type in all cases: biochemical
Cathepsin L = Cathepsin L (Homo sapiens, UniProt P07711); assay: Cathepsin L inhibition, fluorogenic peptide substrate kinetic assay (selectivity); conditions: ratio of cathepsin L inhibition constant to cathepsin S inhibition constant
Cathepsin B = Cathepsin B (Homo sapiens, UniProt P07858); assay: Cathepsin B inhibition, fluorogenic peptide substrate kinetic assay (selectivity); conditions: ratio of cathepsin B inhibition constant to cathepsin S inhibition constant;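 further: value is the cathepsin B inhibition constant divided by the cathepsin S one, each from kinetic fluorescence readings (ex 380 nm, em 450 nm) of a 10 µM coumarin peptide substrate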
Cathepsin S = Cathepsin S (Homo sapiens, UniProt P25774); assay: Cathepsin S inhibition, fluorogenic peptide substrate kinetic assay;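 further: cleavage rate of a coumarin-labelled peptide substrate (50 µM) read as fluorescence increase at Ex 380 nm and Em 450 nm, relative to inhibitor-free control reactions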
Cathepsin K = biological target: T1, Cathepsin K (Homo sapiens, UniProt P43235); assay: Cathepsin K inhibition, fluorogenic peptide substrate kinetic assay (selectivity); conditions: ratio of cathepsin K inhibition constant to cathepsin S inhibition constant
T1 sequence (P43235 115-329): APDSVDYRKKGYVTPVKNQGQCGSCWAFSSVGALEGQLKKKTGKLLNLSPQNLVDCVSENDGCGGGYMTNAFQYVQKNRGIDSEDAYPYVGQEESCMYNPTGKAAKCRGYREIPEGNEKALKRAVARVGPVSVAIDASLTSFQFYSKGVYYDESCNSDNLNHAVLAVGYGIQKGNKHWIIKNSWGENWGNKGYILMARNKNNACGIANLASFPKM

[1] = Cathepsin S inhibition constant, pH5.5, 20 minutes preincubation at room temperature, read-out: Ki Cat. S

Sequence of Cathepsin L (P07711 114-333, species assumed): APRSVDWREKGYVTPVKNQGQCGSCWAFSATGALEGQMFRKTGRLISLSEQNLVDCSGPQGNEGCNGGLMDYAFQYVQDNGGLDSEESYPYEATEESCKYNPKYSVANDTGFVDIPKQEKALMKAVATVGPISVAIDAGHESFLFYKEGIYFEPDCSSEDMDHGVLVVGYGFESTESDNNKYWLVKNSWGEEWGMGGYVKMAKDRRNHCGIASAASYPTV
Sequence of Cathepsin S (P25774 115-331, species assumed): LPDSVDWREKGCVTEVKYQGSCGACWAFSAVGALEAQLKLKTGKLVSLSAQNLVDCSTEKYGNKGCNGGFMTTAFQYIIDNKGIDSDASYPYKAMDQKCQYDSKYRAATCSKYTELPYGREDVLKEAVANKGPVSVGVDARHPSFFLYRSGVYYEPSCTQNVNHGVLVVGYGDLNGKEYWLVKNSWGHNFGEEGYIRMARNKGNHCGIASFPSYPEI

Row | Selectivity for Cat. S over Cat. L (Cathepsin L) | Selectivity for Cat. S over Cat. B (Cathepsin B) | Ki (Cathepsin S; [1]) [nM] | Selectivity for Cat. S over Cat. K (Cathepsin K) | Ki (Cathepsin S) [nM] | SMILES
1 | + (+, >10) | + (+, >10) | 1000 to 10000 | + (+, >10) |  | Cc1cc(NC[C@H](C)NC(=O)O[C@@H](CC2CCCCC2)C(=O)N2CCOCC2)no1 [Example 91, [1-(S)-Methyl-2-(5-methyl-isoxazol-3-ylamino)-ethyl]-carbamic acid 1-(S)-cyclohexylmethyl-2-morpholin-4-yl-2-oxo-ethyl ester]
2 | +++ (+++, >1000) | +++ (+++, >1000) | < 100 | +++ (+++, >1000) |  | CC[C@@H](CN1CC(C)(C)c2cc(F)ccc21)NC(=O)O[C@@H](CC1CCCCC1)C(=O)N1CCOCC1 [Example 92, (S,S)-[1-(5-Fluoro-3,3-dimethyl-2,3-dihydro-indol-1-yl-methyl)-propyl]-carbamic acid 1-cyclohexylmethyl-2-morpholin-4-yl-2-oxo-ethyl ester]
3 | + (+, >10) | + (+, >10) | 1000 to 10000 | + (+, >10) |  | CC(=O)N1CCN(C(=O)[C@H](CC2CCCCC2)OC(=O)N[C@@H](C)CN2c3ccc(F)cc3CC2(C)C)CC1 [Example 94, (S,S)-[2-(5-Fluoro-2,2-dimethyl-2,3-dihydro-indol-1-yl)-1-methyl-ethyl]-carbamic acid 2-(4-acetyl-piperazin-1-yl)-1-cyclohexylmethyl-2-oxo-ethyl ester]
4 | + (+, >10) | + (+, >10) | 1000 to 10000 | + (+, >10) |  | C[C@@H](CN1c2ccc(F)cc2CC1(C)C)NC(=O)O[C@@H](CC1CCCCC1)C(=O)N1CCN(S(C)(=O)=O)CC1 [Example 95, [2-(5-Fluoro-2,2-dimethyl-2,3-dihydro-indol-1-yl)-1-(S)-methyl-ethyl]-carbamic acid 1-(S)-cyclohexylmethyl-2-(4-methanesulfonyl-piperazin-1-yl)-2-oxo-ethyl ester]
5 | + (+, >10) | + (+, >10) | 1000 to 10000 | + (+, >10) |  | C[C@@H](CN1c2ccc(F)cc2CC1(C)C)NC(=O)O[C@@H](CC1CCCCC1)C(=O)N1CCSCC1 [Example 96, [2-(5-Fluoro-2,2-dimethyl-2,3-dihydro-indol-1-yl)-1-(S)-methyl-ethyl]-carbamic acid 1-(S)-cyclohexylmethyl-2-oxo-2-thiomorpholin-4-yl-ethyl ester]
6 | + (+, >10) | + (+, >10) | 1000 to 10000 | + (+, >10) |  | CC(C)[C@@H](CN1CC(C)(C)c2cc(F)ccc21)NC(=O)O[C@@H](CS(=O)(=O)Cc1ccccc1)C(=O)N1CCOCC1 [Example 110, [1-(S)-(5-Fluoro-3,3-dimethyl-2,3-dihydro-indol-1-ylmethyl)-2-methyl-propyl]-carbamic acid 2-morpholin-4-yl-2-oxo-1-(R)-phenylmethanesulfonylmethyl-ethyl ester]
7 | ++ (++, >100) | +++ (+++, >1000) | < 100 | + (+, >10) |  | CC(C)[C@@H](CN1CC(C)(C)c2cc(F)ccc21)NC(=O)O[C@H](C(=O)N1CCOCC1)C1CCCCC1 [Example 111, [1-(S)-(5-Fluoro-3,3-dimethyl-2,3-dihydro-indol-1-ylmethyl)-2-methyl-propyl]-carbamic acid 1-(S)-cyclohexyl-2-morpholin-4-yl-2-oxo-ethyl ester]

More lines, now with the values behind:

Row | SMILES | Selectivity for Cat. S over Cat. L (Cathepsin L) | Selectivity for Cat. S over Cat. B (Cathepsin B) | Ki (Cathepsin S; [1]) [nM] | Selectivity for Cat. S over Cat. K (Cathepsin K) | Ki (Cathepsin S) [nM]
8 | CC1(C)CN(C[C@@H](NC(=O)[C@@H](CC(=O)N2CCOCC2)c2ccc(C(F)(F)F)cc2)C2CC2)c2ccc(F)cc21 [Example 69, N-[1-(S)-Cyclopropyl-2-(5-fluoro-3,3-dimethyl-2,3-dihydro-indol-1-yl)-ethyl]-4-morpholin-4-yl-4-oxo-2-(S)-(4-trifluoromethyl-phenyl)-butyramide] | ++ (++, >100) | ++ (++, >100) | 100 to 1000 | + (+, >10) | 
9 | O=C(N[C@H](CNc1ccc(OC(F)(F)F)cc1)C1CC1)[C@@H](CC(=O)N1CCOCC1)c1ccc(C(F)(F)F)cc1 [Example 70, N-[1-(S)-Cyclopropyl-2-(4-trifluoromethoxy-phenylamino)-ethyl]-4-morpholin-4-yl-4-oxo-2-(S)-(4-trifluoromethyl-phenyl)-butyramide] | ++ (++, >100) | ++ (++, >100) |  | ++ (++, >100) | 100 to 1000
10 | COc1ccc(NC[C@H](C)NC(=O)[C@H](CC2CCCCC2)NC(=O)N2CCOCC2)cc1 [Example 72, (S,S)-Morpholine-4-carboxylic acid {2-cyclohexyl-1-[2-(4-methoxy-phenylamino)-1-methyl-ethylcarbamoyl]-ethyl}-amide] | + (+, >10) | ++ (++, >100) | < 100 | ++ (++, >100) | 
11 | COc1ccc(NC[C@H](C)NC(=O)[C@H](CC2CCCC2)NC(=O)N2CCOCC2)cc1 [Example 73, Morpholine-4-carboxylic acid {2-cyclopentyl-1-(S)-[2-(4-methoxy-phenylamino)-1-(S)-methyl-ethylcarbamoyl]-ethyl}-amide] | + (+, >10) | ++ (++, >100) | < 100 | + (+, >10) | 
12 | Cc1cc(NC[C@H](C)NC(=O)[C@H](CC2CCCCC2)NC(=O)N2CCOCC2)no1 [Example 77, Morpholine-4-carboxylic acid {2-cyclohexyl-1-(S)-[1-(S)-methyl-2-(5-methyl-isoxazol-3-ylamino)-ethylcarbamoyl]-ethyl}-amide] | + (+, >10) | ++ (++, >100) | 100 to 1000 | + (+, >10) | 
13 | C[C@@H](CN1CC(C)(C)c2cc(F)ccc21)NC(=O)[C@H](CC1CCCCC1)NC(=O)N1CCOCC1 [Example 80, (S,S)-Morpholine-4-carboxylic acid {2-cyclohexyl-1-[2-(5-fluoro-3,3-dimethyl-2,3-dihydro-indol-1-yl)-1-methyl-ethylcarbamoyl]-ethyl}-amide] | + (+, >10) | +++ (+++, >1000) | < 100 | +++ (+++, >1000) | 
14 | CC1(C)CN(C[C@@H](NC(=O)[C@H](CC2CCCCC2)NC(=O)N2CCOCC2)C2CC2)c2ccc(F)cc21 [Example 81, Morpholine-4-carboxylic acid {2-cyclohexyl-1-(S)-[1-(S)-cyclopropyl-2-(5-fluoro-3,3-dimethyl-2,3-dihydro-indol-1-yl)-ethylcarbamoyl]-ethyl}-amide] | + (+, >10) | +++ (+++, >1000) | < 100 | ++ (++, >100) | 
15 | CC(=O)NS(=O)(=O)c1ccc(NC[C@H](C)NC(=O)O[C@@H](CC2CCCCC2)C(=O)N2CCOCC2)cc1 [Example 89, [2-(4-Acetylsulfamoyl-phenylamino)-1-(S)-methyl-ethyl]-carbamic acid 1-(S)-cyclohexylmethyl-2-morpholin-4-yl-2-oxo-ethyl ester] | + (+, >10) | + (+, >10) | 1000 to 10000 | + (+, >10) | 
